Calls of active or inactive are those of the source.
What was measured:
Leucine aminopeptidase = target: T1, Leucine aminopeptidase (Plasmodium falciparum 3D7, UniProt Q8IL11); test: P. falciparum M17LAP inhibitors, primary screen, biochemical, fluorogenic H-Leu-NHMec substrate, 1536-well (AID 1619); assay type: functional
T1 sequence (Q8IL11 whole entry): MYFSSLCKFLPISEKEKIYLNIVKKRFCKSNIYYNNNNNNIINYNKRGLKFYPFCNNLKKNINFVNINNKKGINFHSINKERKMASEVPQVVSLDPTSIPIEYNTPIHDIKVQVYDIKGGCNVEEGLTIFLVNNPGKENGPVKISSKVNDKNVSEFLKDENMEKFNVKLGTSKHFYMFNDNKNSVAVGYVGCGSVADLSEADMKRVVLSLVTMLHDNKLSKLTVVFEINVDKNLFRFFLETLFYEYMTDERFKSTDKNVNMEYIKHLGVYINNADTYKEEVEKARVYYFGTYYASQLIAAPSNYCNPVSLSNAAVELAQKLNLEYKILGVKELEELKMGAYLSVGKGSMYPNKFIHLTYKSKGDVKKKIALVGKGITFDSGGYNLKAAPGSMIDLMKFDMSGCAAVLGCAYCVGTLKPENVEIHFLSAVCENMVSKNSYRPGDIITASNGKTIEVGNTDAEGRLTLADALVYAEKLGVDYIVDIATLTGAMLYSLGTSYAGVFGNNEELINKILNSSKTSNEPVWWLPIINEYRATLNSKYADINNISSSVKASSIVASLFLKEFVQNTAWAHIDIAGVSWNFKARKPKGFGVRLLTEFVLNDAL

Aspartyl aminopeptidase = target: T2, Aspartyl aminopeptidase (Plasmodium falciparum 3D7, UniProt Q8I2J3); test: Counterscreen for inhibitors of M1 and M17 aminopeptidases: QFRET-based biochemical high throughput dose response assay for inhibitors of the Plasmodium falciparum M18 Aspartyl Aminopeptidase (PFM18AAP). [Related PubChem assays: 1619 (Screening assay (M17LAP inhibitors).), 1445 (Screening assay (M1AAP inhibitors).)]
T2 sequence (Q8I2J3 whole entry): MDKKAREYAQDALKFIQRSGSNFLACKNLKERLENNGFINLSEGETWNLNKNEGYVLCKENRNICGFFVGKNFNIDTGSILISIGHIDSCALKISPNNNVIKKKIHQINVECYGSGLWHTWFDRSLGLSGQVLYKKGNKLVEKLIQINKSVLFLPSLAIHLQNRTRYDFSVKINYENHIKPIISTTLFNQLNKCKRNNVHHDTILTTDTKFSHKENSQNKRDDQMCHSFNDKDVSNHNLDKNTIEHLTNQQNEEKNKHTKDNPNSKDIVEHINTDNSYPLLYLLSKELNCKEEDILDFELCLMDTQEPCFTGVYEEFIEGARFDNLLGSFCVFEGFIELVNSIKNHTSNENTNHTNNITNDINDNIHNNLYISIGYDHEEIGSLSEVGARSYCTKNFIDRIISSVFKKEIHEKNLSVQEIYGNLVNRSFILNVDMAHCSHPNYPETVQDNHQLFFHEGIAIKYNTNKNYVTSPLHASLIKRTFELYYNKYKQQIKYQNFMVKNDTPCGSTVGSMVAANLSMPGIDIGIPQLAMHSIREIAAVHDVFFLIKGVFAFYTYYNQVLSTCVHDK

Procathepsin L = Procathepsin L (Homo sapiens, UniProt P07711); test: CTSL1 protease inhibition – biochemical, QFRET, 1536-well, counter-screen for M1/M17 aminopeptidase inhibitor project, dose response (AID 2214)
HT-1080 = test: HT1080 cell viability loss – fluorescence readout (AID 620); assay type: functional, cell-based; details: Homo sapiens
[1] = target: T3, RNA-editing ligase 1, mitochondrial (Trypanosoma brucei brucei, UniProt P86926); test: inhibition of trypanosome RNA editing ligase – biochemical, fluorescence, Trypanosoma brucei, dose response (AID 1117295); assay type: functional
T3 sequence (P86926 whole entry): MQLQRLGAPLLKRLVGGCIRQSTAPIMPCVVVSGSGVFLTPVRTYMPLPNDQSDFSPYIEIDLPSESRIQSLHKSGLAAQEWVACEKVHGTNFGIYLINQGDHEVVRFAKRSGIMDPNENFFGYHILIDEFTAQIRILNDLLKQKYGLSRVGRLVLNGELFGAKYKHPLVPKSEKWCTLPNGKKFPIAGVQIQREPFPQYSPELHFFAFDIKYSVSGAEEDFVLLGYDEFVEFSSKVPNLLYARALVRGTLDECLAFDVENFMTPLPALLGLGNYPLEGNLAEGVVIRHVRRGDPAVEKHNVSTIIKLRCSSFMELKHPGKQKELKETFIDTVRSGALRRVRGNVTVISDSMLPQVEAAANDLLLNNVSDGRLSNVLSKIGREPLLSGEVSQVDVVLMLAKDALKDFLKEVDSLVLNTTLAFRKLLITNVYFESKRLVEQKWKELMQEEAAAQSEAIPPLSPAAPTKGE

[2] = target: T4, Mannose-6-phosphate isomerase (Homo sapiens, UniProt P34949); test: MPI enzyme activity inhibition – biochemical, fluorescence intensity, coupled assay, primary screen (AID 1209)
T4 sequence (P34949 whole entry): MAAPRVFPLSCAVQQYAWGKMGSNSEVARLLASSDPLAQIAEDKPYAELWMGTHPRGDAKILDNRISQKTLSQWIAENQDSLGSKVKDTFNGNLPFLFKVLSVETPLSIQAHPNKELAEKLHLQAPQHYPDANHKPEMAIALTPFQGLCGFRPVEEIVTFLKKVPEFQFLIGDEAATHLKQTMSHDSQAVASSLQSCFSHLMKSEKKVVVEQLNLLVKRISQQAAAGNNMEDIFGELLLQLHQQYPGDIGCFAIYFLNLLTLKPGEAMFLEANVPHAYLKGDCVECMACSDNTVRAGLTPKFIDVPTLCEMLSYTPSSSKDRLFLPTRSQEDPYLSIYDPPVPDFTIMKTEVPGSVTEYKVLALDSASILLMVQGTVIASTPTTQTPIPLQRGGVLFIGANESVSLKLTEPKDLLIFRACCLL

[3] = viability of uninfected HEp-2 cells – cell-based, HTS, cytotoxicity control for RSV inhibitor project, dose response (AID 2410); assay type: functional; details: human respiratory syncytial virus
Estrogen receptor = target: T5, Estrogen receptor (Homo sapiens, UniProt P03372);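 also: potency for inhibiting coactivator peptide recruitment to the receptor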
T5 sequence (P03372 whole entry): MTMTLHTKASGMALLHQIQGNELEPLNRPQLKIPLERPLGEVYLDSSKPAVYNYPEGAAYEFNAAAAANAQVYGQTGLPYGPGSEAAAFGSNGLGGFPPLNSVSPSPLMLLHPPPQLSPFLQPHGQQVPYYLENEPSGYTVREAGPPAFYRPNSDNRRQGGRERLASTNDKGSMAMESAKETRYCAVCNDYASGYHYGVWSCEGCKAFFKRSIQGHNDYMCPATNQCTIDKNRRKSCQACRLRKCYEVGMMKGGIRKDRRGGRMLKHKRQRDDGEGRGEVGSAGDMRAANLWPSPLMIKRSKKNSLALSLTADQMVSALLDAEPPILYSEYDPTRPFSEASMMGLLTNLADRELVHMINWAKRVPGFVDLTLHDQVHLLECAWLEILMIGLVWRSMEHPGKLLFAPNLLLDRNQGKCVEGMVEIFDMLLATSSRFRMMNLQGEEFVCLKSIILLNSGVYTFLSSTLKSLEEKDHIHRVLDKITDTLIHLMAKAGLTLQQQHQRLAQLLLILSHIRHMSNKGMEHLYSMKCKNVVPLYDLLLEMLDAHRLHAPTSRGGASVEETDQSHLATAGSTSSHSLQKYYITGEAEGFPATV

Chain of Procathepsin L (P07711 whole entry): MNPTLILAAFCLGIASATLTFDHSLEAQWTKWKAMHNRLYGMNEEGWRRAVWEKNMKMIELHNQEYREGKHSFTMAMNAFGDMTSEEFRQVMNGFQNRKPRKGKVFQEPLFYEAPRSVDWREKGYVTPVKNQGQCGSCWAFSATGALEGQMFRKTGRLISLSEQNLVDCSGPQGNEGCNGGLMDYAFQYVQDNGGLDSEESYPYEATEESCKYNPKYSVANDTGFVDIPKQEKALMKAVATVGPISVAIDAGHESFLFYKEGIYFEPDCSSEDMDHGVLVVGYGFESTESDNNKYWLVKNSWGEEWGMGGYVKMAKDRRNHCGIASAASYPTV

SMILES	IC50 (Leucine aminopeptidase)	IC50 (Aspartyl aminopeptidase)	IC50 (Procathepsin L)	also measured
Cc1ccc(-n2c(C)cc(C(=O)COC(=O)c3ccc[nH]c3=O)c2C)cc1C	1.45 µM (active)	> 73.5 µM (not active)	> 59.6 µM (not active)	–
O=C(CSc1nccc(O)n1)Nc1ccc(Br)c(Cl)c1	2.5 µM (active)	> 73.5 µM (not active)	> 59.6 µM (not active)	–
O=C(NC1=NC2CCCCC2N1)c1ccccc1 (stereo unspecified)	–	–	–	EC50 (HT-1080): > 50 µM (not active)
CC1=C(C)CC(C(=O)Nc2cccc([N+](=O)[O-])c2)C(C(=O)O)C1 (stereo unspecified)	6.42 µM (active)	> 73.5 µM (not active)	> 59.6 µM (not active)	–
COC(=O)C1=C(C)N(Cc2ccccc2C(F)(F)F)C(NCc2ccccc2)=NC1c1cccc(F)c1 (stereo unspecified)	–	–	–	IC50 [1]: > 96.6 µM (inactive)
Cn1c(=O)c([N+](=O)[O-])c(Oc2ccccc2)c2ccccc21	–	–	–	IC50 [2]: > 50 µM (not active)
CC(=O)c1ccc2c(c1)C1C=CCC1C(c1ccc(S(=O)(=O)N3CCOCC3)cc1)N2 (stereo unspecified)	–	–	–	CC50 [3]: 17.2 µM (active); IC50 (cells): 22.5 µM (active)
CC(C)Nc1nc(NCCOc2ccccc2Cl)c2sc(-c3ccccc3)cc2n1	–	–	–	IC50 [1]: > 96.6 µM (inactive)
N#Cc1nc(-c2ccc(OCc3ccc(Cl)cc3)cc2)oc1NCc1cccnc1	–	–	–	IC50 (Estrogen receptor): 37.4 µM (not active)

Reference: ChEMBL document CHEMBL1201862, “PubChem BioAssay data set” (2004)
